Data on 1 compound can be found in patent US20090043129A1 (priority 2005, published 2009).

A value given as a limit tells only on which side of the number the result lay.

Assay [1] has as its target T1, Fatty Acid Amide Hydrolase (FAAH) (Rattus norvegicus, UniProt P97612).
T1 sequence (P97612 1-579): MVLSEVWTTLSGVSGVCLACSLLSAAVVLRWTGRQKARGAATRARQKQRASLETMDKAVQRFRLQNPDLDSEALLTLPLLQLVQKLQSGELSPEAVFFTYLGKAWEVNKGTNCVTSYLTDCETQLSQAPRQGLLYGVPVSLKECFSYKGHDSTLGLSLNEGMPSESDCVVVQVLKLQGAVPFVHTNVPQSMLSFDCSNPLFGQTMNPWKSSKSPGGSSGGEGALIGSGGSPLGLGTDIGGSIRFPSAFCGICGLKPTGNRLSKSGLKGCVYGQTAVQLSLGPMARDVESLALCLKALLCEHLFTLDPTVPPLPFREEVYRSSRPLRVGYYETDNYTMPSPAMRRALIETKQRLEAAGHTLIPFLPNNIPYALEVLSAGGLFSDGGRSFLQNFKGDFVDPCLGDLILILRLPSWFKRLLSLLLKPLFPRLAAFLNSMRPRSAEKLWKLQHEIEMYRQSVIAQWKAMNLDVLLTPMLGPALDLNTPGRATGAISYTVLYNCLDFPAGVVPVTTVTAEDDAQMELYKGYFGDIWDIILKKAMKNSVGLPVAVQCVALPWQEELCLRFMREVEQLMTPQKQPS
Briefly: biochemical. How it is done:
Assay for Fatty Acid Amide Hydrolase (FAAH)
The effect of compounds on the enzymatic hydrolysis of [^14C]anandamide (6 μM) was studied using membranes prepared from rat brain incubated with increasing concentrations of compounds in 50 mM Tris-HCl, pH 9, for 30 minutes at 37° C. (Di Marzo et al., 2002). [^14C]ethanolamine produced from [^14C]anandamide hydrolysis was measured counting the scintillation of the aqueous phase after extraction of the incubation mixture with 2 volumes of CHCl3/CH3OH (2:1 by volume). […]

In assay [2] the target is T2, human recombinant CB1 receptor (Homo sapiens, UniProt P21554). It is filed as binding. Further details: purchased Perkin-Elmer; host or cells: COS cells.
The target of assay [3] is T3, CB1 cannabinoid receptors (Mus musculus, UniProt P47746).
T3 construct: N18TG2 mouse neuroblastoma cells, which constitutively and selectively express the CB 1 cannabinoid receptors; endogenous in cells; host or cells: N18TG2 mouse neuroblastoma cells
Briefly: Forskolin-induced cyclic AMP in N18TG2 neuroblastoma cells. In kind it is cell-based. Here is the method:
(§1) After incubation, 800 μl of methanol were added, cells were extracted and cyclic AMP was determined with a cyclic AMP assay kit (Amersham, UK), in accordance with the supplier's recommendations.

In assay [4] the target is T4, CB1 receptors (Mus musculus, UniProt P47746).
T4 construct: using mouse brain membranes containing CB1 receptors; from tissue; host or cells: mouse brain membranes
Briefly: [35S]GTP-γ-S binding, mouse brain membranes. It is filed as biochemical. The note with it: mouse brain membranes. Here is the method: These assays were performed as previously described (Thomas et al., 2005), using mouse brain membranes containing CB1 receptors or CHO cells stably over-expressing the human recombinant CB2 receptor (10 μg/ml protein), 0.7 nM [^35S]GTP-γ-S and 320 μM GDP, and a final assay volume of 250 μl. Results were compared to the potent CB1 and CB2 receptor agonist CP55940, purchased from Cayman Chemicals, Ann Arbour, Mich., USA.
Background: GTPγS resists hydrolysis and so accumulates on activated G proteins.

The target of assay [5] is T5, human recombinant CB2 receptor (Homo sapiens, UniProt P34972). Briefly: CB2 binding, [3H]CP55,940 displacement, membranes from transfected COS cells. Also noted: purchased Perkin-Elmer; host or cells: COS cells. Conditions: values in nM.
Assay [6] addresses T5, human recombinant CB2 receptor. Briefly: Forskolin-induced cAMP formation in CHO cells over-expressing hCB2. It is filed as cell-based. Also noted: expressed in transfected cells; host or cells: CHO cells (stably over-expressing). How it is done:
as §1

The target in assay [7] is T2, human recombinant CB1 receptor. Briefly: Forskolin-induced cAMP formation in CHO cells over-expressing hCB1. It is filed as cell-based. Further details: expressed in transfected cells; host or cells: CHO cells. Here is the method:
as §1

Assay [8] concerns the target T5, human recombinant CB2 receptor. Briefly: [35S]GTP-γ-S binding, CHO cells over-expressing hCB2. In kind it is biochemical. Further details: expressed in transfected cells; host or cells: CHO cells (stably over-expressing). The text has this:
Results were compared to the potent CB1 and CB2 receptor agonist CP55940, purchased from Cayman Chemicals, Ann Arbour, Mich., USA.

In assay [9] the test system is Anandamide Membrane Transporter (AMT). Briefly: Anandamide uptake by RBL-2H3 cells. In kind it is cell-based. The note with it: anandamide uptake, read-out: AMT IC50. Here is the method: Assay for the Anandamide Membrane Transporter (AMT)
The effect of the compounds on the uptake of anandamide by the RBL-2H3 cells was studied as described (Di Marzo et al., 2002). Cells were incubated with [^14C]anandamide (4 μM) for 5 minutes at 37° C., in the presence or absence of varying concentrations of the inhibitors. Residual [^14C]anandamide in the incubation media after extraction with CHCl3/CH3OH (2:1 by volume) was used as a measure of the anandamide that was taken up by cells. Data are expressed as the concentration that produces 50% of inhibition of anandamide uptake (IC50) calculated with GraphPad.

T2 sequence (P21554 whole entry): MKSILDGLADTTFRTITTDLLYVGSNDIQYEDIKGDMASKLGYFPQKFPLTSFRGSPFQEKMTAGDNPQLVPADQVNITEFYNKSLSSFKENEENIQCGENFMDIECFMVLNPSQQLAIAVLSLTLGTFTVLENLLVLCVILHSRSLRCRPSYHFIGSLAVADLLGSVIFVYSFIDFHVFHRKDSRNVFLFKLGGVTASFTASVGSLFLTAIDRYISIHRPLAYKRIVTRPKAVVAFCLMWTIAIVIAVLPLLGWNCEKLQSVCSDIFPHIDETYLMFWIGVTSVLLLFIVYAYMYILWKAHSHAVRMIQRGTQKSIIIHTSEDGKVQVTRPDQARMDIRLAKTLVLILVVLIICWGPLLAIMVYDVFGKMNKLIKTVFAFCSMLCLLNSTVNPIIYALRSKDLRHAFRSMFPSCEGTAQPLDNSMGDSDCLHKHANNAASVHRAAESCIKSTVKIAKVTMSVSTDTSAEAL
T5 sequence (P34972 whole entry): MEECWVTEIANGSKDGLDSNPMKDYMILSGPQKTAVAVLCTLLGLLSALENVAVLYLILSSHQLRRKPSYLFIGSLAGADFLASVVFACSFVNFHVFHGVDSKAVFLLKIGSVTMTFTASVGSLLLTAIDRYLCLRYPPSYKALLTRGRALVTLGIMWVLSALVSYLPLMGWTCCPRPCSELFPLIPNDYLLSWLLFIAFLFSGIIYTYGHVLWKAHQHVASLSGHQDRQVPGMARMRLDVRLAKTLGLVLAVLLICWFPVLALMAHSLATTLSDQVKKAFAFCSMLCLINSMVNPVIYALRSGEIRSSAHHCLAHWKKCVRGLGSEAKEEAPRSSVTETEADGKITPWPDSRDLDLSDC
T4 sequence (P47746 whole entry): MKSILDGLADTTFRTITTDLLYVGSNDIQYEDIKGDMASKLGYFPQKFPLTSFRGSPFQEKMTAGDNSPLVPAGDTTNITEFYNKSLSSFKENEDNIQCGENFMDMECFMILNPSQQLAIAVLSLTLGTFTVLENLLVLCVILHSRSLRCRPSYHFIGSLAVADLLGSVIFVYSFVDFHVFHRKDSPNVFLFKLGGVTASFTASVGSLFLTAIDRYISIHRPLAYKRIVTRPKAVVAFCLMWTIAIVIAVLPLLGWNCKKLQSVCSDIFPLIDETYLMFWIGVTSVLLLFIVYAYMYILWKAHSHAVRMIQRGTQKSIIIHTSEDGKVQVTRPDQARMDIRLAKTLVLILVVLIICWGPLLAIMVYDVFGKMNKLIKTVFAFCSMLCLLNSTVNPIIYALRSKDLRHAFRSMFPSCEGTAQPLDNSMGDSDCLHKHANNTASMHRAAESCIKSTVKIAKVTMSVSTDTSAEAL
T3 sequence (P47746 whole entry): as above

What is called IC50 is the concentration that inhibits the measured activity by half. In general, Ki refers to a dissociation constant, usually derived from enzyme kinetics or from competition with a known ligand. In general, EC50 refers to the concentration giving half of the maximal effect. For the compound `CCCCCc1cc(O)cc(OCCCCCCCCCCC(=O)NC2CC2)c1` [Compound 25, 11-(3-Hydroxy-5-pentyl-phenoxy)-undecanoic acid cyclopropylamide], the IC50 in [1] is more than 10 µM; in assay [4] (read-out: IC50, stimulation of GTP-γ-S-binding), 0.15 µM; in assay [9] it was 17 µM. Also, the Ki was 0.0052 µM in [2] and 13 nM in [5]. For the same compound, the EC50 in assay [3] is 0.013 µM; in [6] it was more than 10 µM; in assay [7], 1.6 µM. The “functional behaviour at CB1 receptors” value in [3] (N18TG2 cells, cAMP) is given as “inverse agonist/antagonist”. Also, the “functional behaviour in GTP-γ-S-binding” value in [4] is listed as “agonist action”. The “hCB2 % effect with 10 μM” value in assay [6] (10 μM, forskolin-induced cAMP formation, CHO hCB2) is reported as 26%. For the same compound, the “effect on forskolin-induced cAMP formation (in words)” value in assay [6] (CHO hCB2) was “no significant effect”. In addition, the “hCB1 % effect with 10 μM” value in assay [7] (10 μM, forskolin-induced cAMP formation, CHO hCB1) is listed as 63%. Moreover, the “functional behaviour at human recombinant CB1” value in assay [7] (Test 1, CHO hCB1, inhibit forskolin-induced cAMP formation) is listed as “partial agonists”. In [8] (CHO hCB2), the “antagonism of CP55940-induced stimulation of GTP-γ-S binding (in words)” value is on record as “block the effect of CP55940”. For the same compound, the “effect on GTP-γ-S-binding (in words)” value in assay [8] (CHO hCB2) was “no significant stimulation or inhibition”. For the same compound, in [8] (Test 1 and Test 2, CHO hCB2), the “functional behaviour at CB2 receptors” value is “neutral (“silent”) antagonists”.
